Assay results reported in patent US20120225062A1 (priority 2011, published 2012).

Experiments:
Pim 2 = Pim 2 (Homo sapiens, UniProt Q9P1W9); assay: Pim 2 AlphaScreen assay (high ATP)
Procedure: (§1) The activity of Pim 1, Pim 2, & Pim 3 is measured using a homogeneous bead based system quantifying the amount of phosphorylated peptide substrate resulting from kinase-catalyzed phosphoryl transfer to a peptide substrate. Compounds to be tested are dissolved in 100% DMSO and directly distributed to a white 384-well plate at 0.25 μl per well. […] This is followed by the addition of 5 μl/well of Pim 1, Pim 2 or Pim 3 kinase in assay buffer (concentrations described below). Final assay concentrations (described below) are in 2.5% DMSO. The reactions are performed for ˜2 hours, then stopped by the addition of 10 μl of 0.75 μg/ml anti-phospho Ser/Thr antibody (Cell Signaling), 10 μg/ml Protein A AlphaScreen beads (Perkin Elmer), and 10 μg/ml streptavidin coated AlphaScreen beads in stop/detection buffer (50 mM EDTA, 95 mM Tris, pH=7.5, 0.01% Tween-20). The stopped reactions are incubated overnight in the dark. The phosphorylated peptide is detected via an oxygen anion initiated chemiluminescence/fluorescence cascade using the Envision plate reader (Perkin Elmer).

Pim 1 = Pim 1 (Homo sapiens, UniProt P11309); assay: Pim 1 AlphaScreen assay (high ATP)
Procedure: as §1

[1] = test system: KMS11 (human myeloma cell line); assay: Cell Proliferation Assay (CellTiter-Glo, 3 days); assay type: cell-based; details: KMS-11, 72 h, KMS11-luc cells
How it was run: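 KMS11 myeloma cells, 2000 per well in IMDM with 10% FBS, exposed to compound for 3 days at 37° C. Viability read by CellTiter-Glo luminescence; EC50 derived.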

Pim 3 = Pim 3 (Homo sapiens, UniProt Q86V86); assay: Pim 3 AlphaScreen assay (high ATP)

Chain of Pim 1 (P11309 whole entry): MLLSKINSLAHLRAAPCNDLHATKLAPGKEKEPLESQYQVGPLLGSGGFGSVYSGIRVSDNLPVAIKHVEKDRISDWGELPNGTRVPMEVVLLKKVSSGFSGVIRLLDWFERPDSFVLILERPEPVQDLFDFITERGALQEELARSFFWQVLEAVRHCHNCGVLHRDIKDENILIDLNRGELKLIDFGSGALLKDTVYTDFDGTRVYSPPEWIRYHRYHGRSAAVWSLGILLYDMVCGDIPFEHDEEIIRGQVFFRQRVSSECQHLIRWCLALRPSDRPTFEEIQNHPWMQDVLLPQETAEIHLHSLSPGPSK
Chain of Pim 2 (Q9P1W9 whole entry): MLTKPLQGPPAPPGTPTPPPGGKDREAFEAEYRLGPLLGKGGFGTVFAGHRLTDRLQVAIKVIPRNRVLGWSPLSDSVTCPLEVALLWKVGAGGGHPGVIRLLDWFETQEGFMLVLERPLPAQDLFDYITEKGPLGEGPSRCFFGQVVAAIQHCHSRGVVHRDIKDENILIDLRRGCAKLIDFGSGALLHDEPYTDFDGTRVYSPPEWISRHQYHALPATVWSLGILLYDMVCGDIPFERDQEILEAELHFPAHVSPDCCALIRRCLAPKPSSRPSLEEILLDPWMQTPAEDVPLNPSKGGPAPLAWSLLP

SMILES	IC50 (Pim 2) [nM]	IC50 (Pim 1) [nM]	EC50 [1] [nM]	IC50 (Pim 3) [nM]
COC1(c2cc(F)c(-c3nc(C(=O)Nc4cnccc4[C@@H]4C[C@H](C)C[C@H](N)C4)ccc3F)c(F)c2)COC1 [Example 53, N-(4-((1R,3S,5S)-3-amino-5-methylcyclohexyl)pyridin-3-yl)-6-(2,6-difluoro-4-(3-methoxyoxetan-3-yl)phenyl)-5-fluoropicolinamide]	2.56	0.05	32	4.05
C[C@H]1CN(c2ccncc2NC(=O)c2ccc(F)c(-c3c(F)cc([S@@+](C)[O-])cc3F)n2)C[C@@H](N)[C@@H]1O [Example 26, N-(4-((3R,4R,5S)-3-amino-4-hydroxy-5-methylpiperidin-1-yl)pyridin-3-yl)-6-(2,6-difluoro-4-((R)-methylsulfinyl)phenyl)-5-fluoropicolinamide]	1.88	0.05	42	2.21
Cc1noc(C)c1-c1cc(F)c(-c2nc(C(=O)Nc3cnccc3[C@H]3C[C@@H](N)[C@H](O)[C@@H](C)C3)ccc2F)c(F)c1 [Example 173, N-(4-((1R,3R,4R,5S)-3-amino-4-hydroxy-5-methylcyclohexyl)pyridin-3-yl)-6-(4-(3,5-dimethylisoxazol-4-yl)-2,6-difluorophenyl)-5-fluoropicolinamide]	58.5	0.26	2440	29.5
Cc1cc(F)c(-c2nc(C(=O)Nc3cnccc3[C@H]3C[C@@H](N)C[C@@H](C(C)C)C3)ccc2F)c(F)c1 [Example 123, N-(4-((1R,3S,5S)-3-amino-5-isopropylcyclohexyl)pyridin-3-yl)-6-(2,6-difluoro-4-methylphenyl)-5-fluoropicolinamide]	0.8	0.02	59	0.58
COC(C)(C)c1cc(F)c(-c2nc(C(=O)Nc3cnccc3[C@@H]3C[C@H](C)C[C@H](N)C3)ccc2F)c(F)c1 [Example 49, N-(4-((1R,3S,5S)-3-amino-5-methylcyclohexyl)pyridin-3-yl)-6-(2,6-difluoro-4-(2-methoxypropan-2-yl)phenyl)-5-fluoropicolinamide]	2.67	0.03	53	1.86
CCOCCOc1cc(F)c(-c2nc(C(=O)Nc3cnccc3[C@H]3C[C@@H](N)[C@H](O)[C@@H](C)C3)ccc2F)c(F)c1 [Example 141, N-(4-((1R,3R,4R,5S)-3-amino-4-hydroxy-5-methylcyclohexyl)pyridin-3-yl)-6-(4-(2-ethoxyethoxy)-2,6-difluorophenyl)-5-fluoropicolinamide]	37.4	0.45	2510	16
CCOc1cc(F)c(-c2nc(C(=O)Nc3cnccc3N3C[C@@H](N)[C@H](O)[C@@H](C)C3)ccc2F)c(F)c1 [Example 20, N-(4-((3R,4R,5S)-3-amino-4-hydroxy-5-methylpiperidin-1-yl)pyridin-3-yl)-6-(4-ethoxy-2,6-difluorophenyl)-5-fluoropicolinamide]	0.97	0.02	7	0.29
C[C@H]1CN(c2ccncc2NC(=O)c2ccc(F)c(-c3c(F)cc([C@@H](O)CO)cc3F)n2)C[C@@H](N)[C@@H]1O [Example 234, N-(4-((3R,4R,5S)-3-amino-4-hydroxy-5-methylpiperidin-1-yl)pyridin-3-yl)-6-(4-((R)-1,2-dihydroxyethyl)-2,6-difluorophenyl)-5-fluoropicolinamide]	1.77	0.04	9	0.65
C[C@H]1CN(c2ccncc2NC(=O)c2ccc(F)c(-c3c(F)cc(CC(C)(C)O)cc3F)n2)C[C@@H](N)[C@@H]1O [Example 131, N-(4-((3R,4R,5S)-3-amino-4-hydroxy-5-methylpiperidin-1-yl)pyridin-3-yl)-6-(2,6-difluoro-4-(2-hydroxy-2-methylpropyl)phenyl)-5-fluoropicolinamide]	1.31	0.01	25	0.18
COCCCOc1cc(F)c(-c2nc(C(=O)Nc3cnccc3[C@@H]3C[C@H](C)C[C@H](N)C3)ccc2F)c(F)c1 [Example 176, N-(4-((1R,3S,5S)-3-amino-5-methylcyclohexyl)pyridin-3-yl)-6-(2,6-difluoro-4-(3-methoxypropoxy)phenyl)-5-fluoropicolinamide]	1.62	0.01	182	0.48
C[C@@H]1C[C@H](N)C[C@H](c2ccncc2NC(=O)c2ccc(F)c(-c3c(F)cc([C@@H](O)CO)cc3F)n2)C1 [Example 232, N-(4-((1R,3S,5S)-3-amino-5-methylcyclohexyl)pyridin-3-yl)-6-(4-((R)-1,2-dihydroxyethyl)-2,6-difluorophenyl)-5-fluoropicolinamide]	3.01	0.05	47	2.07

The remaining compounds from weak to strong by IC50 (Pim 2), led by results:

IC50 (Pim 2) [nM]	IC50 (Pim 1) [nM]	EC50 [1] [nM]	IC50 (Pim 3) [nM]	SMILES
6.33	0.04	97	1.32	C[C@H]1C[C@@H](c2ccncc2NC(=O)c2ccc(F)c(-c3c(F)cc(OC4COC4)cc3F)n2)C[C@@H](N)[C@@H]1O [Example 47, N-(4-((1R,3R,4R,5S)-3-amino-4-hydroxy-5-methylcyclohexyl)pyridin-3-yl)-6-(2,6-difluoro-4-(oxetan-3-yloxy)phenyl)-5-fluoropicolinamide]
2.77	0.02	28	0.45	C[C@H]1C[C@@H](c2ccncc2NC(=O)c2ccc(F)c(-c3c(F)cc(OC4CCOCC4)cc3F)n2)C[C@@H](N)[C@@H]1O [Example 59]
2.31	0.02	263	0.52	C[C@H]1C[C@@H](c2ccncc2NC(=O)c2cccc(-c3c(F)cc(N4CCOCC4)cc3F)n2)C[C@@H](N)[C@@H]1O [Example 191, N-(4-((1R,3R,4R,5S)-3-amino-4-hydroxy-5-methylcyclohexyl)pyridin-3-yl)-6-(2,6-difluoro-4-morpholinophenyl)picolinamide]
2.2	0.05	49	1.34	C[C@H]1C[C@@H](c2ccncc2NC(=O)c2ccc(F)c(-c3c(F)cc(CC(C)(C)O)cc3F)n2)C[C@@H](N)[C@@H]1O [Example 85, N-(4-((1R,3R,4R,5S)-3-amino-4-hydroxy-5-methylcyclohexyl)pyridin-3-yl)-6-(2,6-difluoro-4-(2-hydroxy-2-methylpropyl)phenyl)-5-fluoropicolinamide]
1.67	0.02	23	0.43	C[C@@H]1C[C@H](N)C[C@H](c2ccncc2NC(=O)c2ccc(F)c(-c3c(F)cc4c(c3F)OCC[C@@]4(C)O)n2)C1 [Example 240, N-(4-((1R,3S,5S)-3-amino-5-methylcyclohexyl)pyridin-3-yl)-6-((R)-6,8-difluoro-4-hydroxy-4-methylchroman-7-yl)-5-fluoropicolinamide]
1.19	0.02	13	0.34	C[C@H]1CN(c2ccncc2NC(=O)c2ccc(F)c(-c3c(F)cc(OCCO)cc3F)n2)C[C@@H](N)[C@@H]1O [Example 21, N-(4-((3R,4R,5S)-3-amino-4-hydroxy-5-methylpiperidin-1-yl)pyridin-3-yl)-6-(2,6-difluoro-4-(2-hydroxyethoxy)phenyl)-5-fluoropicolinamide]
